From ChEMBL document CHEMBL1124720, “4'-[(4-Piperidyl)carbonyl]methanesulfonanilides as potent, selective, bioavailable class III antiarrhythmic agents” (J Med Chem, 1990)
Activity calls are given as the source filed them. No cut-off for these calls is given here.

Legend:
Canis familiaris [1] = assay: Percent change in Heart rate after intravenous administration of 0.003 mg/kg in Anesthetized Dogs; type: functional, Canis lupus familiaris
Cavia porcellus [2] = species on record: Cavia porcellus; assay: Concentration (0.1-10 uM) that causes 10% prolongation in the action potential duration at 90% […] in Guinea pig right ventricular papillary muscles; type: functional, Muscle tissue
Canis familiaris [3] = assay: Percent change in Heart rate after intravenous administration of 0.01 mg/kg in Anesthetized Dogs; type: functional, Canis lupus familiaris
Canis familiaris [4] = assay: Percent change in Effective refractory period after intravenous administration of 0.01 mg/kg in Anesthetized Dogs; type: functional, Canis lupus familiaris
Canis familiaris [5] = assay: Percent change in Mean Blood pressure after intravenous administration of 0.03 mg/kg in Anesthetized Dogs; type: functional, Canis lupus familiaris
Canis familiaris [6] = assay: Percent change in Mean Blood pressure after intravenous administration of 0.01 mg/kg in Anesthetized Dogs; type: functional, Canis lupus familiaris
Canis familiaris [7] = assay: Percent change in Heart rate after intravenous administration of 0.03 mg/kg in Anesthetized Dogs; type: functional, Canis lupus familiaris
Canis familiaris [8] = assay: Percent change in Effective refractory period after intravenous administration of 0.03 mg/kg in Anesthetized Dogs; type: functional, Canis lupus familiaris
Canis familiaris [9] = assay: Percent change in Effective refractory period after intravenous administration of 0.003 mg/kg in Anesthetized Dogs; type: functional, Canis lupus familiaris
Canis familiaris [10] = assay: Percent change in rate of left ventricular pressure after intravenous administration of 0.1 mg/kg in Anesthetized Dogs; type: functional, Canis lupus familiaris, Heart left ventricle
Canis familiaris [11] = assay: Percent change in Heart rate after intravenous administration of 0.1 mg/kg in Anesthetized Dogs; type: functional, Canis lupus familiaris
Canis familiaris [12] = assay: Percent change in QTc interval after intravenous administration of 0.01 mg/kg in Anesthetized Dogs; type: functional, Canis lupus familiaris
Canis familiaris [13] = assay: Percent change in rate of left ventricular pressure after intravenous administration of 0.03 mg/kg in Anesthetized Dogs; type: functional, Canis lupus familiaris, Heart left ventricle
Canis familiaris [14] = assay: Percent change in Effective refractory period after intravenous administration of 0.1 mg/kg in Anesthetized Dogs; type: functional, Canis lupus familiaris
Canis familiaris [15] = assay: Percent change in rate of left ventricular pressure after intravenous administration of 0.01 mg/kg in Anesthetized Dogs; type: functional, Canis lupus familiaris, Heart left ventricle
Canis familiaris [16] = assay: Percent change in QTc interval after intravenous administration of 0.03 mg/kg in Anesthetized Dogs; type: functional, Canis lupus familiaris
Cavia porcellus [17] = species on record: Cavia porcellus; assay: Concentration (0.1-100 uM) that causes 10% prolongation in the action potential duration at 90% […] in Guinea pig right ventricular papillary muscles; type: functional, Muscle tissue
[18] = Half life of beta-elimination phase in plasma after oral administration of 10-50 mg/kg in conscious dogs; Range is 2.2-2.9; type: ADME, organism-based, Canis lupus familiaris; conditions: dog
Cavia porcellus [19] = species on record: Cavia porcellus; assay: The maximum percent change in the maximum rate rise of the action Potential in Guinea pig right ventricular papillary muscles at concentration 0.1-100 uM; NS=Not significant; type: functional; conditions: Muscle tissue
Canis familiaris [20] = assay: Percent change in Mean Blood pressure after intravenous administration of 0.1 mg/kg in Anesthetized Dogs; type: functional, Canis lupus familiaris
Canis familiaris [21] = assay: Percent change in QTc interval after intravenous administration of 0.1 mg/kg in Anesthetized Dogs; type: functional, Canis lupus familiaris
Cavia porcellus [22] = species on record: Cavia porcellus; assay: Maximum percent increase in 90% repolarization at a concentration of 100 uM in Guinea pig right ventricular papillary muscles; type: functional, Muscle tissue
Canis familiaris [23] = assay: Percent change in Effective refractory period after intravenous administration of 0.01 mg/kg in Anesthetized Dogs
Cavia porcellus [24] = species on record: Cavia porcellus; assay: Concentration (1-10 uM) that causes 10% prolongation in the action potential duration at 90% […] in Guinea pig right ventricular papillary muscles; type: functional, Muscle tissue
Cavia porcellus [25] = species on record: Cavia porcellus; assay: Maximum percent increase in 90% repolarization at a concentration of 10 uM in Guinea pig right ventricular papillary muscles; type: functional, Muscle tissue
Cavia porcellus [26] = species on record: Cavia porcellus; assay: The maximum percent change in the maximum rate rise of the action Potential in Guinea pig right ventricular papillary muscles, at compound concentration 1-10 uM; NS=Not significant; type: functional; conditions: Muscle tissue
[27] = Half life of beta-elimination phase in plasma after oral administration of 10-50 mg/kg in conscious dogs; Range is 1.4-2.1; type: ADME, organism-based, Canis lupus familiaris; conditions: dog
Cavia porcellus [28] = species on record: Cavia porcellus; assay: Concentration (1-100 uM) that causes 10% prolongation in the action potential duration at 90% […] in Guinea pig right ventricular papillary muscles; type: functional, Muscle tissue
Cavia porcellus [29] = species on record: Cavia porcellus; assay: The maximum percent change in the maximum rate rise of the action Potential in Guinea pig right ventricular papillary muscles at concentration 1-100 uM; NS=Not significant; type: functional; conditions: Muscle tissue
Canis familiaris [30] = assay: Percent change in Heart rate after intravenous administration of 0.01 mg/kg in Anesthetized Dogs
Canis familiaris [31] = assay: Percent change in Heart rate after intravenous administration of 0.3 mg/kg in Anesthetized Dogs; type: functional, Canis lupus familiaris
Canis familiaris [32] = assay: Percent change in Heart rate after intravenous administration of 3 mg/kg in Anesthetized Dogs; type: functional, Canis lupus familiaris
Canis familiaris [33] = assay: Percent change in QTc interval after intravenous administration of 0.3 mg/kg in Anesthetized Dogs; type: functional, Canis lupus familiaris
Canis familiaris [34] = assay: Percent change in rate of left ventricular pressure after intravenous administration of 3 mg/kg in Anesthetized Dogs; type: functional, Canis lupus familiaris, Heart left ventricle
Canis familiaris [35] = assay: Percent change in Effective refractory period after intravenous administration of 1 mg/kg in Anesthetized Dogs; type: functional, Canis lupus familiaris
Canis familiaris [36] = assay: Percent change in rate of left ventricular pressure after intravenous administration of 1 mg/kg in Anesthetized Dogs; type: functional, Canis lupus familiaris, Heart left ventricle
Canis familiaris [37] = assay: Percent change in QTc interval after intravenous administration of 1 mg/kg in Anesthetized Dogs; type: functional, Canis lupus familiaris
Canis familiaris [38] = assay: Percent change in Mean Blood pressure after intravenous administration of 1 mg/kg in Anesthetized Dogs; type: functional, Canis lupus familiaris
Canis familiaris [39] = assay: Percent change in Effective refractory period after intravenous administration of 3 mg/kg in Anesthetized Dogs; type: functional, Canis lupus familiaris
Canis familiaris [40] = assay: Percent change in Mean Blood pressure after intravenous administration of 0.3 mg/kg in Anesthetized Dogs; type: functional, Canis lupus familiaris
Canis familiaris [41] = assay: Percent change in Mean Blood pressure after intravenous administration of 3 mg/kg in Anesthetized Dogs; type: functional, Canis lupus familiaris
Canis familiaris [42] = assay: Percent change in Effective refractory period after intravenous administration of 0.3 mg/kg in Anesthetized Dogs; type: functional, Canis lupus familiaris
Canis familiaris [43] = assay: Percent change in rate of left ventricular pressure after intravenous administration of 0.3 mg/kg in Anesthetized Dogs; type: functional, Canis lupus familiaris, Heart left ventricle
Canis familiaris [44] = assay: Percent change in QTc interval after intravenous administration of 3 mg/kg in Anesthetized Dogs; type: functional, Canis lupus familiaris
Canis familiaris [45] = assay: Percent change in Heart rate after intravenous administration of 1 mg/kg in Anesthetized Dogs; type: functional, Canis lupus familiaris

SMILES | HR(delta) (Canis familiaris [3]) | ERP (delta) (Canis familiaris [4]) | mBP(delta) (Canis familiaris [5]) | mBP(delta) (Canis familiaris [6]) | HR(delta) (Canis familiaris [7]) | ERP (delta) (Canis familiaris [8]) | LV dP/dTmax(delta) (Canis familiaris [10]) | HR(delta) (Canis familiaris [11]) | QTc delta (Canis familiaris [12]) | LV dP/dTmax(delta) (Canis familiaris [13]) | ERP (delta) (Canis familiaris [14]) | LV dP/dTmax(delta) (Canis familiaris [15]) | QTc delta (Canis familiaris [16]) | mBP(delta) (Canis familiaris [20]) | QTc delta (Canis familiaris [21]) | Max APD90 (delta) (Cavia porcellus [22]) | C10APD90 (Cavia porcellus [28]) | Vmax (Cavia porcellus [29]) | other results
Cc1cccc(CCN2CCC(C(=O)c3ccc(NS(C)(=O)=O)cc3)CC2)n1.Cl.Cl | -20% | 15% | -6% | -4% | -30% | 24% |  |  |  |  |  |  |  |  |  |  |  |  | HR(delta) (Canis familiaris [1]): -8%; C10APD90 (Cavia porcellus [2]): 0.13 µM; ERP (delta) (Canis familiaris [9]): 6%
CS(=O)(=O)Nc1ccc(C(=O)C2CCN(CCCc3ccncc3)CC2)cc1.Cl.Cl | -6% |  | -5% | 2% | -20% | 15% | 13% | -28% | 7% | 13% | 19% | 7% | 15% | -9% | 21% | 33% |  |  | C10APD90 (Cavia porcellus [17]): 0.19 µM; half-life [18]: 2.2 h; Vmax (Cavia porcellus [19]): inactive; ERP (delta) (Canis familiaris [23]): 11%
CCCCCCC[N+](CC)(CC)CCCCc1ccc(Cl)cc1 [CLOFILIUM] |  |  |  |  |  |  |  |  |  |  |  |  |  |  |  |  |  |  | C10APD90 (Cavia porcellus [24]): 1 µM; Max APD90 (delta) (Cavia porcellus [25]): 13%; Vmax (Cavia porcellus [26]): inactive
CS(=O)(=O)Nc1ccc(C(=O)C2CCN(CCc3cccnc3)CC2)cc1.Cl.Cl |  | 6% | -2% | -2% | -8% | 10% | 26% | -17% | 5% | 22% | 19% | 8% | 13% | -8% | 25% | 20% | 1.51 µM | inactive | half-life [27]: 1.4 h; HR(delta) (Canis familiaris [30]): -3%
CC(C)NCC(O)c1ccc(NS(C)(=O)=O)cc1 (stereo not drawn) [SOTALOL] |  |  |  |  |  |  |  |  |  |  |  |  |  |  |  | 21% | 16.3 µM | inactive | HR(delta) (Canis familiaris [31]): -6%; HR(delta) (Canis familiaris [32]): -30%; QTc delta (Canis familiaris [33]): 4%; LV dP/dTmax(delta) (Canis familiaris [34]): 5%; ERP (delta) (Canis familiaris [35]): 14%; LV dP/dTmax(delta) (Canis familiaris [36]): -4%; QTc delta (Canis familiaris [37]): 11%; mBP(delta) (Canis familiaris [38]): -7%; ERP (delta) (Canis familiaris [39]): 26%; mBP(delta) (Canis familiaris [40]): 0%; mBP(delta) (Canis familiaris [41]): -13%; ERP (delta) (Canis familiaris [42]): 5%; LV dP/dTmax(delta) (Canis familiaris [43]): -1%; QTc delta (Canis familiaris [44]): 23%; HR(delta) (Canis familiaris [45]): -19%
